Entries after “also recorded” stand apart in the source; their conditions may differ.
Key:
B16 tumor cells [1] = test: MTT cell proliferation assay; format: cell-based, murine; conditions: B16 cells in vitro; inosine 10, 50, 200 μM; 0-96 h
Protocol: MTT assays were used to determine the cell viability of B16 tumor cells treated with control vehicle; the concentration of inosine administered is indicated, where “Ino-10” means 10 μM Inosine; “Ino-50” means 50 μM Inosine and “Ino-200” means 200 μM Inosine.
Cell proliferation ability was examined at 0, 24, 48, 72 h and 96 h using a Cell Proliferation Reagent Kit I (MTT; Sigma) according to the manufacturer's instruction. Cells were seeded in a 96-well plate in triplicate at a concentration of 2×10^3 cells/well. On the indicated day, the medium was removed and the MTT solution was added to the wells. Four hours later, DMSO was added and the cells were further incubated for 10 min with gentle shaking at 37° C. Finally, the optical density of each well was measured using a microplate reader at 550 nm.

B16 tumor cells [2] = test: Cell apoptosis assay (Annexin V / 7-AAD flow cytometry); format: cell-based, murine; conditions: B16 cells in vitro; inosine same concentrations as FIG. 2A; 48 h
Protocol: Tumor cells were seeded in a 6-well plate and grown for 24 h. Cells were then treated with control (vehicle) or 1, 10, 50, 100 μM inosine. After 48 h of treatment, cells were harvested by trypsinization, resuspended at 10^6 cells/ml in 1× Annexin V Binding Buffer (BD Biosciences), and 100 μl (10^5 cells) were added to each FACS tube. Cells were stained with 7-AAD (5 μl/100 μl, BD Biosciences, to assess cell death), and APC-conjugated Annexin V (5 μl/100 μl, BD Biosciences, to assess apoptosis) for 30 min and analyzed by BD FACSCanto II. FACS data were acquired using FACSDiva (BD Biosciences) and analyzed using FlowJo software (Tree Star) and the percentage of APC^+ cells obtained.

[3] = test system: H2k1, H2d1, Stat1, Stat3, Irf1 mRNA in B16 cells; test: Reverse transcription quantitative PCR of antigen presentation-related and IFN signaling genes; format: cell-based, murine; conditions: inosine at 500
Protocol: Tumor cells cDNA was prepared using 1 μg RNA with the qScript cDNA Synthesis Kit (Bio-Rad). SYBR green-based qPCR was performed using murine primers to H2k1, H2d1, Stat1, Stat3, and Irf1. Relative copy number was determined by calculating the fold-change difference in the gene of interest relative to 18sRNA (ΔCt=Ct gene of interest−Ct 18sRNA) and reported as relative mRNA expression (ΔΔCt=2^−(ΔCt sample−ΔCt control)) or fold change. qPCR was performed on an Applied Biosystems 7300 machine.

[4] = test system: MHC-I (H2kb) on B16 cells; test: Flow cytometry of membrane MHC-I (H2kb) expression; format: cell-based, murine; conditions: inosine at 500
Protocol: B16 cells were stained for flow cytometry to determine the membrane MHC-I expression level.
For MHC-I expression flow analysis on the tumor cell, one million cells per condition were stained with the PE anti-mouse H-2Kb antibody (Biolegend) diluted in PBS plus 2% FBS and kept for 30 min on ice. Matched isotype control Ab was performed as a control.

[5] = test system: CD4+ and CD8+ T cells in B16 tumors; test: Flow cytometry of tumor-infiltrating T lymphocytes in B16 tumors; format: in vivo, C57BL/6 mice; conditions: n=5 tumors
Protocol: Tumors from the indicated treatment group were mechanically minced for the isolation of infiltrating lymphocytes. Cells were counted and stained for flow cytometry to determine the percentage of CD4^+ and CD8^+ T lymphocytes in total CD45^+ immune cells.
Results are shown as mean±SEM (* P<0.05; ** P<0.01) and statistics were calculated using the unpaired t-test with Welch's correction.
Mouse tumor samples were minced with scissors before incubation with dissociation buffer (2 mg/ml collagenase type A, 0.02 mg/ml DNase in RPMI1640 containing 5% FBS, PenStrep) with agitation at 37° C. for 45 min. Tumor samples were homogenized by repeated pipetting and filtered through a 70-μm nylon filter (BD Biosciences) in RPMI supplemented with 10% FBS to generate single-cell suspensions. Cell suspensions were washed once with complete RPMI. After lysis of red blood cells, single-cell suspensions were blocked with anti-CD16/32 (Biolegend) for 20 min on ice and then incubated with appropriate antibodies for 30 min on ice: anti-CD45-APC-Cy7, CD3-FITC, CD8-PercP-Cy5.5, CD4-PE. Dead cells and doublets were excluded on the basis of forward and side scatter and Fixable Viability Dye eFluor 450 (eBioscience). Flow cytometry was performed on FACSCanto II (BD Biosciences), and data were analyzed using FlowJo (TreeStar).

4T1 tumors = test: 4T1 breast cancer tumor model in mice (tumor volume, weight); format: in vivo; conditions: 4T1 tumor-bearing Balb/c mice; inosine 400 mg/kg/day oral day 4 to 21; anti-CTLA4 100 μg + anti-PD-1 200 μg i.p. days 7, 10, 13, 16
Protocol: 4T1 cells were injected into the mammary fat pad of eight-week-old female Balb/c mice (2×10^5/mouse). […] Results are shown as mean±SEM. (*** indicates P<0.001).
4T1 cells were injected into the mammary fat pad of eight-week-old female Balb/c mice (2×10^5/mouse). […] Results are shown as mean±SEM. (** indicates P<0.01)

[6] = background; cited from earlier work
B16 tumors = test: B16 melanoma tumor model in mice (tumor volume, survival); conditions: B16 tumor-bearing C57BL/6 mice; inosine 400 mg/kg/day oral from day 4; anti-CTLA4 100 μg + anti-PD-1 200 μg i.p. days 7, 10, 13, 16
Protocol: B16 cells were injected subcutaneously into eight-week-old female C57BL/6 mice (2×10^5/mouse). Anti-CTLA4 antibody (100 μg per mouse) and anti-PD-1 antibody (200 μg per mouse) were injected i.p on days 7, 10, 13 and 16. 400 mg/kg body weight of inosine per day was orally administered to mice from day 4.
(§1) All the cell lines were confirmed to be mycoplasma free. Cells were cultured using DMEM (Corning) with 10% fetal bovine serum (Corning) and 1% Pen/Strep (Life Technologies). Cells were incubated in an incubator maintained at 37° C. and 5% CO2. 75-80% of confluent cells were harvested for orthotopic injection.
(§2) For the melanoma model, 2×10^5 B16 or B16-GM cells were harvested for orthotopic injection into the subcutaneous (s.c.) of C57BL/6J mice (6-8 weeks) using 0.25% Trypsin (Corning) and suspended in DPBS (Gibco).
(§3) Treatments were given as single agents or in combination with the following regimen. Inosine (Sigma-Aldrich) was dissolved in sterilized water to yield a concentration of 40 mg/ml, and administered by oral gavage once a day at 400 mg/kg body weight. Treatment was initiated on day 4 and ended on day 21 post tumor implant. Control groups received vehicle (water) by oral gavage. […] Tumors were measured every third day with a caliper, and measurements were assessed manually by assessing the longest dimension (length) and the longest perpendicular dimension (width). […]

B16-GM tumors = test: B16-GM metastatic melanoma tumor model in mice (tumor volume, weight, lung metastasis, survival)
Protocol: B16-GM cells were injected subcutaneously into eight-week-old female C57BL/6 mice (2×10^5/mouse). Anti-CTLA4 antibody (100 μg per mouse) and anti-PD-1 antibody (200 μg per mouse) were injected i.p on days 7, 10, 13 and 16. 400 mg/kg of inosine per day was orally administered to mice from day 4 to day 21.
as §1, §2, §3

For `OC[C@H]1O[C@@H](n2cnc3c(O)ncnc32)[C@H](O)[C@@H]1O` [inosine, 9-[(2R,3R,4S,5R)-3,4-dihydroxy-5-(hydroxymethyl)oxolan-2-yl]-1H-purin-6-one], the “proliferation / cell viability (MTT)” value (B16 tumor cells [1]) was “didn't inhibit tumor cell proliferation; also recorded: doesn't inhibit the proliferation”, the apoptotic tumor cells (B16 tumor cells [2]) was “didn't inhibit tumor cell proliferation and promote apoptosis; also recorded: doesn't induce the apoptosis” and the “relative mRNA expression of antigen presentation-related genes (H2k1, H2d1) and IFN signaling genes (Stat1, Stat3, Irf1)” value [3] was “stimulates interferon signaling and antigen presentation-related genes; also recorded: increases the expression of antigen presentation-related genes and IFN signaling genes”. For the same molecule, the “membrane MHC-I (H2kb) expression” value [4] was “enhances the expression of MHC-I; also recorded: increases the membrane protein level of MHC-I”, the “CD8+ T cell population in tumors” value [5] was “increased the cytotoxic CD8^+ T infiltration” and the “tumor volume / tumor growth” value (4T1 tumors) was “does not significantly affect tumor growth”. The half-life [6] was “approximately 15 h”, the “tumor volume / tumor growth” value (B16 tumors) was “inhibited tumor growth in vivo; also recorded: enhanced the antitumor efficacy of ICB” and the “tumor volume / tumor growth” value (B16-GM tumors; B16-GM tumor-bearing C57BL/6 mice, inosine 400 mg/kg/day oral day 4 to 21, anti-CTLA4 100 μg + anti-PD-1 200 μg i.p. days 7, 10, 13, 16) was “reduced tumor size”. For the same molecule, the “lung metastasis (metastatic nodules)” value (B16-GM tumors; B16-GM tumor-bearing mice, day 18) was “significant reduction in lung metastasis”.

— US10736913B1, “Use of inosine for cancer immunotherapy” (IMMUNOSPARKLE BIOSCIENCE LLC, priority 2019, dated 2020)
